Experimental data taken from PubChem BioAssay (NCI).
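Briefly, cells in 96-well plates were exposed to five compound concentrations for 48 h, and endpoints were estimated by linear interpolation. The concentration for 50% growth inhibition is given as GI50. TGI denotes the concentration required for complete inhibition of growth.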

What was measured:
Assay in all cases: DTP human tumour cell line panel, 48 h
[1] = test system: DU-145 prostate
[2] = test system: OVCAR-3 ovarian
[3] = test system: NCI-H23 lung
[4] = test system: SNB-75 CNS
[5] = test system: HS 578T breast
[6] = test system: LOX IMVI melanoma
[7] = test system: ACHN renal
[8] = test system: SF-268 CNS
[9] = test system: MOLT-4 leukemia
[10] = test system: T-47D breast
[11] = test system: SK-MEL-2 melanoma
[12] = test system: OVCAR-5 ovarian
[13] = test system: UACC-62 melanoma
[14] = test system: COLO 205 colon
[15] = test system: SK-OV-3 ovarian
[16] = test system: IGROV1 ovarian
[17] = test system: MDA-MB-231 breast
[18] = test system: HCC-2998 colon
[19] = test system: SW-620 colon
[20] = test system: U251 CNS
[21] = test system: TK-10 renal
[22] = test system: M14 melanoma
[23] = test system: SK-MEL-5 melanoma
[24] = test system: BT-549 breast
[25] = test system: HCT-15 colon
[26] = test system: A498 renal
[27] = test system: KM12 colon
[28] = test system: HOP-62 NSCLC
[29] = test system: NCI/ADR-RES ovarian
[30] = test system: A549 NSCLC
[31] = test system: HT29 colon
[32] = test system: SN12C renal
[33] = test system: UACC-257 melanoma
[34] = test system: SF-539 CNS
[35] = test system: SNB-19 CNS
[36] = test system: UO-31 renal
[37] = test system: RXF 393 renal
[38] = test system: NCI-H226 lung
[39] = test system: HOP-92 NSCLC
[40] = test system: SR leukemia
[41] = test system: SF-295 CNS
[42] = test system: EKVX NSCLC
[43] = test system: MDA-MB-435
[44] = test system: CAKI-1 renal
[45] = test system: NCI-H522 lung
[46] = test system: OVCAR-4 ovarian
[47] = test system: CCRF-CEM leukemia
[48] = test system: PC-3 prostate
[49] = test system: HCT-116 colon
[50] = test system: MALME-3M melanoma
[51] = test system: 786-0 renal
[52] = test system: OVCAR-8 ovarian
[53] = test system: NCI-H460 lung
[54] = test system: K-562 leukemia
[55] = test system: HL-60(TB) leukemia
[56] = test system: MCF7 breast
[57] = test system: SK-MEL-28 melanoma
[58] = test system: RPMI-8226 leukemia

Work on COc1ccc(-c2nn(C(=O)NCCN(C)C)cc2-c2ccncc2)cc1Cl yielded a GI50 [1] of 6.94 µM, a TGI [1] of 65.6 µM and a GI50 [2] of 4.32 µM. It also gave a TGI [2] of 39.1 µM, a GI50 [3] of 6.29 µM and a TGI [3] of 60.7 µM. For the same compound, the GI50 [4] was 1.68 µM, the TGI [4] was 6.19 µM and the GI50 [5] was 2.79 µM. The TGI [5] was 9.21 µM, the GI50 [6] was 4.23 µM and the TGI [6] was 48.9 µM. The GI50 [7] was 3.76 µM, the TGI [7] was greater than 100 µM and the GI50 [8] was 3.68 µM. For the same compound, the TGI [8] was 37.2 µM, the GI50 [9] was 4.67 µM and the TGI [9] was greater than 100 µM. It also gave a GI50 [10] of 11.6 µM, a TGI [10] greater than 100 µM and a GI50 [11] of 3.67 µM. For the same compound, the TGI [11] was 9.48 µM, the GI50 [12] was 15.1 µM and the TGI [12] was greater than 100 µM. It also gave a GI50 [13] of 3.07 µM, a TGI [13] of 14.3 µM and a GI50 [14] of 3.5 µM. The TGI [14] was 13.9 µM, the GI50 [15] was 3.12 µM and the TGI [15] was 15.5 µM. It also gave a GI50 [16] of 8.74 µM, a TGI [16] greater than 100 µM and a GI50 [17] of 6.34 µM. It also gave a TGI [17] greater than 100 µM, a GI50 [18] of 10.1 µM and a TGI [18] of 46.4 µM. For the same compound, the GI50 [19] was 3.35 µM, the TGI [19] was greater than 100 µM and the GI50 [20] was 3.71 µM. For the same compound, the TGI [20] was greater than 100 µM, the GI50 [21] was 1.86 µM and the TGI [21] was 56.1 µM. The GI50 [22] was 5.52 µM, the TGI [22] was 24.4 µM and the GI50 [23] was 3.05 µM. For the same compound, the TGI [23] was 11.4 µM, the GI50 [24] was 4.51 µM and the TGI [24] was greater than 100 µM. The GI50 [25] was 3.93 µM, the TGI [25] was greater than 100 µM and the GI50 [26] was 2.12 µM. For the same compound, the TGI [26] was 5.95 µM, the GI50 [27] was 4.01 µM and the TGI [27] was 43.5 µM. It also gave a GI50 [28] of 2.99 µM, a TGI [28] of 20.9 µM and a GI50 [29] of 3.1 µM. For the same compound, the TGI [29] was greater than 100 µM, the GI50 [30] was 5.44 µM and the TGI [30] was greater than 100 µM. The GI50 [31] was 2.17 µM, the TGI [31] was 12.6 µM and the GI50 [32] was 5.39 µM. The TGI [32] was greater than 100 µM, the GI50 [33] was 16.6 µM and the TGI [33] was greater than 100 µM. The GI50 [34] was 2.28 µM, the TGI [34] was 13.1 µM and the GI50 [35] was 5.15 µM. It also gave a TGI [35] greater than 100 µM, a GI50 [36] of 8.62 µM and a TGI [36] of 53.6 µM. For the same compound, the GI50 [37] was 2.19 µM, the TGI [37] was 12.8 µM and the GI50 [38] was 4.11 µM. The TGI [38] was 63.7 µM, the GI50 [39] was 1.16 µM and the TGI [39] was 56.3 µM. It also gave a GI50 [40] of 6.03 µM, a TGI [40] greater than 100 µM and a GI50 [41] of 3 µM. It also gave a TGI [41] of 42.6 µM, a GI50 [42] of 2.23 µM and a TGI [42] greater than 100 µM. The GI50 [43] was 1.15 µM, the TGI [43] was 4.34 µM and the GI50 [44] was 3.24 µM. The TGI [44] was 24.4 µM, the GI50 [45] was 1.88 µM and the TGI [45] was 5.36 µM. It also gave a GI50 [46] of 7.87 µM, a TGI [46] greater than 100 µM and a GI50 [47] of 7.47 µM. The TGI [47] was greater than 100 µM, the GI50 [48] was 4.62 µM and the TGI [48] was greater than 100 µM. It also gave a GI50 [49] of 4.6 µM, a TGI [49] greater than 100 µM and a GI50 [50] of 11.8 µM. The TGI [50] was greater than 100 µM, the GI50 [51] was 7.62 µM and the TGI [51] was 51.5 µM. It also gave a GI50 [52] of 1.73 µM, a TGI [52] of 35.9 µM and a GI50 [53] of 3.83 µM. For the same compound, the TGI [53] was 35.4 µM, the GI50 [54] was 5.66 µM and the TGI [54] was greater than 100 µM. For the same compound, the GI50 [55] was 5.3 µM, the TGI [55] was 57.9 µM and the GI50 [56] was 3.57 µM. For the same compound, the TGI [56] was greater than 100 µM, the GI50 [57] was 4.01 µM and the TGI [57] was 38.3 µM. For the same compound, the GI50 [58] was 9.71 µM and the TGI [58] was 81.8 µM.
